Reference: US20090062397A1, “COMPOUNDS AND METHODS FOR ENHANCING SOLUBILITY OF FLORFENICOL AND STRUCTURALLY-RELATED ANTIBIOTICS USING CYCLODEXTRINS” (Schering-Plough Animal Health Corporation, priority 2007, published 2009)
Values after ≈ are worked out from the molar mass of the structure shown.

Key:
Format in all cases: physicochemical
[1] = Experimental water solubility of FFC (HPLC solubility study); settings: thermodynamic from solid
Protocol: (§1) Phase solubility analysis is one of the methods used to determine a drug:CD binding constant and its consequences on the drug solubility have been extensively described in the literature by Higuchi and Connors. In such experiments, the solubility of a substance (S) is monitored with increases in the concentration of a ligand (L) (cyclodextrin in this case). The experiments are conducted in a series of tubes or vials containing the same volume of ligand solutions with increasing concentrations, except that one tube contains the solvent only. To each tube is added a known amount of the substance or drug, and the samples are equilibrated at constant temperature. The solution phase is then analyzed for the total substance concentration. If a soluble complex forms, the substance concentration should vary with increasing ligand concentration. The solubility behavior can be determined using a phase diagram by plotting the total substance concentration versus the total ligand concentration.
(§2) Florfenicol solubility in mixed solvents, such as water/PEG-300, and florfenicol complexes with beta cyclodextrin were evaluated by solubility studies using High Performance Liquid Chromatography (HPLC). The HPLC system consisted of a Waters Alliance Separation Module equipped with a Waters 2996 Photodiode Array Detector interfaced with Millennium Chromatography manager data software. The HPLC mobile phase consisted of acetonitrile and a 0.1% phosphoric acid aqueous solution (30:70 v/v). A Phenomenx®, Luna C8 5 micron column was used. The flow rate was 1.0 mL/min and the detection wavelength was 260 nm. Binding constants were calculated using the Higuchi Connors method from solubility study plots. The solubility of florfenicol in aqueous CD/PEG-300 systems was also investigated with the same technique.
(§3) In a first set of experiments, phase solubility studies were conducted for FFC in natural and modified cyclodextrins. The results of these studies are reported in Tables I, II, III, IV and V below, and the phase solubility diagrams are reported in FIGS. 5, 6, 7 and 8.

[2] = Phase solubility study of FFC in Beta-CD (Higuchi Connors)
Protocol: as §1, §2, §3

[3] = Phase solubility study of FFC in Gamma-CD (Higuchi Connors)
Protocol: as §1, §2, §3

[4] = Phase solubility study of FFC in HP-Beta-CD (Higuchi Connors)
Protocol: as §1, §2, §3

[5] = Phase solubility study of FFC in Captisol (Higuchi Connors)
Protocol: as §1, §2, §3

[6] = Solubility of FFC in aqueous Beta-CD/PEG-300 systems; settings: for solubility: aqueous beta-cyclodextrin/PEG-300 system, aqueous with cosolvent or surfactant or cyclodextrin, thermodynamic from solid
Protocol: as §2
In a second set of experiments, the effects of different percentages of PEG-300 when used as a co-solvent were investigated in a FFC-cyclodextrin complex system.
The results obtained for the FEC-CD complex in the presence of different percentages of PEG-300 and different molar concentrations of cyclodextrin are reported in Tables VI and VII below.

## CS(=O)(=O)c1ccc([C@@H](O)[C@@H](CF)NC(=O)C(Cl)Cl)cc1 (relative stereo) [FFC, [R-(R*,S*)]2,2-Dichloro-N-[1-(fluoromethyl)-2-hydroxy-2-[4-(methylsulfonyl)phenyl]-ethyl]acetamide]
[1]; Standard 1
  solubility: 1910 µg/mL (≈ 5.33 mM)
[1]; Standard 2
  solubility: 1900 µg/mL (≈ 5.3 mM)
[1]; Standard 3
  solubility: 1950 µg/mL (≈ 5.44 mM)
[2]; Beta-CD 0.006 M
  Average FFC: 4.03 mg/mL
  FFC: 10.45 µM
[2]; Beta-CD 0.01 M
  Average FFC: 5.91 mg/mL
  FFC: 15.3 µM
[2]; Beta-CD 0.02 M
  Average FFC: 9.79 mg/mL
  FFC: 25.4 µM
[2]; Beta-CD 0.05 M
  Average FFC: 15.59 mg/mL
  FFC: 40.4 µM
[2]; Beta-CD, Higuchi Connors method
  calculated binding constant for FFC:CD complex: 1429.57 M⁻¹
[3]; Gamma-CD 0.007 M
  Average FFC: 2.51 mg/mL
[3]; Gamma-CD 0.014 M
  Average FFC: 3.70 mg/mL
[3]; Gamma-CD 0.03 M
  Average FFC: 5.24 mg/mL
[3]; Gamma-CD 0.06 M
  Average FFC: 8.20 mg/mL
[3]; Gamma-CD 0.11 M
  Average FFC: 10.77 mg/mL
[3]; Gamma-CD, Higuchi Connors method
  calculated binding constant for FFC:Gamma-CD Complex: 612.43 M⁻¹
[4]; HP-Beta-CD 0.006 M
  Average FFC: 3.72 mg/mL
[4]; HP-Beta-CD 0.012 M
  Average FFC: 4.88 mg/mL
[4]; HP-Beta-CD 0.02 M
  Average FFC: 7.00 mg/mL
[4]; HP-Beta-CD 0.05 M
  Average FFC: 9.76 mg/mL
[4]; HP-Beta-CD 0.09 M
  Average FFC: 17.43 mg/mL
[4]; HP-Beta-CD, Higuchi Connors method
  calculated binding constant for FFC:HP-CD complex: 816.652 M⁻¹
[5]; Captisol 0.006 M
  Average FFC: 4.92 mg/mL
  FFC: 9.28 µM
[5]; Captisol 0.013 M
  Average FFC: 5.11 mg/mL
  FFC: 13.2 µM
[5]; Captisol 0.03 M
  Average FFC: 7.98 mg/mL
[5]; Captisol 0.05 M
  Average FFC: 13.17 mg/mL
  FFC: 34.1 µM
[5]; Captisol 0.10 M
  Average FFC: 19.18 mg/mL
  FFC: 49.7 µM
[5]; Captisol, Higuchi Connors method
  calculated binding constant for FFC:Captisol complex: 1020.92 M⁻¹
[6]; PEG-300 used as co-solvent for a FFC:cyclodextrin complex
  solubility of FFC (change): greatly increased
[6]; 10 mM beta/3% PEG-300
  solubility: 7510 µg/mL (≈ 21 mM)
[6]; 10 mM beta/10% PEG-300
  solubility: 6310 µg/mL (≈ 17.6 mM)
[6]; 10 mM beta/50% PEG-300
  solubility: 12300 µg/mL (≈ 34.3 mM)
[6]; 50 mM beta/20% PEG-300
  solubility: 10600 µg/mL (≈ 29.5 mM)
[6]; 50 mM beta/30% PEG-300
  solubility: 14400 µg/mL (≈ 40.1 mM)
[6]; 50 mM beta/50% PEG-300
  solubility: 15500 µg/mL (≈ 43.3 mM)
